# Test results from patent US20180077929A1, “METHODS AND SYSTEMS FOR TREATING MEDICAL DEVICES AND FLUIDS” (priority 2016, published 2018).
# “And” between values parts separate entries of the source, which are not always exact repeats. Equal values may be shown once.
# Tests used:
# Format in all cases: biochemical
# [1] = Detection of LPS in water in presence of CaSt and EDTA and Tween 20; details: 8330 EU spiked
# Experimental: Further testing was performed with addition of EDTA and Polysorbate 20 reagents to verify permanent removal of LPS/endotoxin activity, by adding EDTA and Polysorbate 20 to the extraction solutions to test for potential recovery of endotoxin activity when introduced to these two substances.
# The testing was performed in aqueous solutions with added EDTA and Polysorbate 20, with suspended CaSt present in some solutions in varying quantities. […] The tubes were vortexed for 1 minute and placed in a 37 C bath for 1 hour. The tubes were removed from the bath and again vortexed for 1 minute. The solutions were diluted and tested for endotoxin using the Kinetic Chromogenic Method for Endotoxin Quantitation, Charles River Laboratories, Charleston S.C. […] These samples were rigorously vortexed and tested using the Kinetic Chromogenic Method for Endotoxin Quantitation, Charles River Laboratories, Charleston S.C.
# [2] = Effect of storage (dwell time) on efficacy of pre-mixed CaSt suspensions; details: 15 minutes
# Experimental: Efficacy of pre-mixed CaSt suspensions (sonicated and vortexed) was tested, comparing efficacy of immediately prepared suspensions with suspensions having shelf life or dwell time of 90 min, 5 days, and 1 month prior to contact with endotoxin containing solutions.
# 10 mL SRW was then introduced to the sonicated CaSt mixture. It was then vortexed for 5 seconds to fully incorporate the sonicated CaSt. The mixture was then tested after 15 minutes of interaction to measure the percent decrease of endotoxin.
# 10 mL SRW was then introduced to the vortexed CaSt mixture. It was then vortexed for 5 seconds to fully incorporate the sonicated CaSt. The mixture was then tested after 15 minutes of interaction to measure the percent decrease of endotoxin.
# These mixtures were then tested on the Charles River MCS at a dilution of 1:2000 after 15 minutes of interaction.
# Test samples were prepared as described above, sonicated and vortexed, but were subjected to shelf life or dwell time of 90 min, 5 days, and 1 month prior to contact with endotoxin containing solution (SRW). After dwell time exposure, similarly to the immediate mixing test above, 10 mL SRW was then introduced to the sonicated or vortexed CaSt mixture. It was then vortexed for 5 seconds to fully incorporate the sonicated CaSt. The mixture was then tested after 15 minutes of interaction to measure the percent decrease of endotoxin. These mixtures were then tested on the Charles River MCS at a dilution of 1:2000 after 15 minutes of interaction.
# *The 1 month shelf life sample was only tested at 0.04 g CaSt and measured the percent removal after 15 minutes of interaction as well as 30 minutes after interaction.
# [3] = Suture testing in Ethyl Acetate containing CaSt; details: contaminated suture in Ethyl Acetate w/ 5% Calcium Stearate, 10 seconds; Ethyl Acetate alone 80.4 EU, no submersion 105.6 EU
# Experimental: An absorbable VICRYL® (Polyglactin 910) suture (Size 1, Length: 27 in) made of a copolymer made from 90% glycolide and 10% L-lactide was exposed to a solution containing LPS (endotoxin) (9 Strands of Vicryl suture were immersed in tubing with endotoxin solution (SRW, Concentration: 3980 EU/mL) for 10 minutes at a time at ambient temperature. The sutures were air dried for 20 minutes in a vented chemical hood and then placed in round bottom and dried The suture was then immersed into Ethyl Acetate (EtAc) containing CaSt, vortexed briefly for 10 seconds, dried for 20 minutes in a vented chemical hood, and extracted in endotoxin free water at ambient temperature. The suture extracted in endotoxin free water (LRW) was then tested for LPS using the Kinetic Chromogenic Method for Endotoxin Quantitation, Charles River Laboratories, Charleston S.C.
# [4] = CaSt suspension 0.007 g in 5 mL
# [5] = CaSt suspension 0.007 g with 0.1M EDTA and 0.05% Tween20
# [6] = CaSt suspension 0.018 g in 5 mL
# [7] = CaSt suspension 0.018 g with 0.1M EDTA and 0.05% Tween20
# [8] = CaSt suspension 0.028 g in 5 mL
# [9] = CaSt suspension 0.028 g with 0.1M EDTA and 0.05% Tween20
# [10] = 0.02 g CaSt, Sonicated, 5 Day dwell time
# [11] = 0.02 g CaSt, Sonicated, 90 min dwell time
# [12] = 0.02 g CaSt, Sonicated, Immediate Mixing
# [13] = 0.02 g CaSt, Vortexed, 5 Day dwell time
# [14] = 0.02 g CaSt, Vortexed, 90 min dwell time
# [15] = 0.04 g CaSt, Sonicated, 1 Month dwell time
# [16] = 0.04 g CaSt, Sonicated, 5 Days dwell time
# [17] = 0.04 g CaSt, Sonicated, 90 min dwell time
# [18] = 0.04 g CaSt, Sonicated, Immediate Mixing
# [19] = 0.04 g CaSt, Vortexed, 5 Days dwell time
# [20] = 0.04 g CaSt, Vortexed, 90 min dwell time
# [21] = 0.04 g CaSt, Vortexed, Immediate Mixing
substance,measurement,setting,value
Calcium Stearate,Endotoxin Detected,[1]; [4],3995 EU
same,Percent detected Endotoxin,[1]; [4],48.0%
same,Endotoxin Detected,[1]; [5],5050 EU
same,Percent detected Endotoxin,[1]; [5],60.6%
same,Endotoxin Detected,[1]; [6],1487.5 EU
same,Percent detected Endotoxin,[1]; [6],17.9%
same,Endotoxin Detected,[1]; [7],1545 EU
same,Percent detected Endotoxin,[1]; [7],18.5%
same,Endotoxin Detected,[1]; [8],235 EU
same,Percent detected Endotoxin,[1]; [8],2.8%
same,Endotoxin Detected,[1]; [9],255 EU
same,Percent detected Endotoxin,[1]; [9],3.1%
same,EU After,"[2]; 0.02 g CaSt in 10 mL LRW, Sonicated, Immediate Mixing with 10 mL SRW, 36,100 EU before","8,960 EU and 10,240 EU"
same,Average Percent Change,[2]; [10],76%
same,Percent Endotoxin Removed,[2]; [10],76%
same,EU After,"[2]; 0.02 g CaSt, Sonicated, 5 Day dwell time, 37,800 EU before","9,200 EU"
same,Average Percent Change,[2]; [11],61%
same,Percent Endotoxin Removed,[2]; [11],58% and 64%
same,EU After,"[2]; 0.02 g CaSt, Sonicated, 90 min dwell time, 36,100 EU before","15,120 EU and 12,960 EU"
same,Average Percent Change,[2]; [12],74%
same,Percent Endotoxin Removed,[2]; [12],75% and 72%
same,Average Percent Change,[2]; [13],64%
same,Percent Endotoxin Removed,[2]; [13],60% and 68%
same,EU After,"[2]; 0.02 g CaSt, Vortexed, 5 Day dwell time, 37,800 EU before","15,120 EU and 12,160 EU"
same,Average Percent Change,[2]; [14],43%
same,Percent Endotoxin Removed,[2]; [14],38% and 47%
same,EU After,"[2]; 0.02 g CaSt, Vortexed, 90 min dwell time, 36,100 EU before","22,400 EU and 19,280 EU"
same,Average Percent Change,"[2]; 0.02 g CaSt, Vortexed, Immediate Mixing",32%
same,EU After,"[2]; 0.02 g CaSt, Vortexed, Immediate Mixing, 36,100 EU before","29,200 EU and 20,480 EU"
same,EU After,"[2]; 0.04 g CaSt in 10 mL LRW, Sonicated, Immediate Mixing with 10 mL SRW, 36,100 EU before","5,320 EU and 5,800 EU"
same,Average Percent Change,[2]; [15],50%
same,Percent Endotoxin Removed,[2]; [15],49.2% and 50.6%
same,Average Percent Change,[2]; [16],85%
same,Percent Endotoxin Removed,[2]; [16],87% and 83%
same,Average Percent Change,[2]; [17],81%
same,Percent Endotoxin Removed,[2]; [17],83% and 78%
same,Average Percent Change,[2]; [18],85%
same,Percent Endotoxin Removed,[2]; [18],85% and 84%
same,EU After,"[2]; 0.04 g CaSt, Sonicated, Mixing after 1 Month dwell time, 14,650 EU before","7,440 EU and 7,240 EU"
same,EU After,"[2]; 0.04 g CaSt, Sonicated, Mixing after 5 Days dwell time, 37,800 EU before","5,040 EU and 6,560 EU"
same,EU After,"[2]; 0.04 g CaSt, Sonicated, Mixing after 90 min dwell time, 36,100 EU before","6,168 EU and 8,000 EU"
same,Average Percent Change,[2]; [19],75%
same,Percent Endotoxin Removed,[2]; [19],76% and 74%
same,Average Percent Change,[2]; [20],54%
same,Percent Endotoxin Removed,[2]; [20],53% and 54%
same,Average Percent Change,[2]; [21],44%
same,Percent Endotoxin Removed,[2]; [21],45% and 43%
same,EU After,"[2]; 0.04 g CaSt, Vortexed, Immediate Mixing, 36,100 EU before","19,840 EU and 20,480 EU"
same,EU After,"[2]; 0.04 g CaSt, Vortexed, Mixing after 5 Days dwell time, 37,800 EU before","9,080 EU and 9,760 EU"
same,EU After,"[2]; 0.04 g CaSt, Vortexed, Mixing after 90 min dwell time, 36,100 EU before","17,120 EU and 16,460 EU"
same,Endotoxin Detected,[3],23.4 EU and 21.78 EU and 25.62 EU
